Activity calls are given as the source filed them. No cut-off for these calls is given here.
Key:
[1] = Metal chelating activity assessed as compound-Fe2+ complex formation at 400 uM preincubated with ferrous ion FeCl2 followed by ferrozine addition measured after 10 mins by spectroscopic method
Beta-secretase 1 [2] = target: T1, Beta-secretase 1 (Homo sapiens, UniProt P56817); assay: Inhibition of recombinant human BACE1 (1 to 460 residues) expressed in baculovirus infected insect cells at 50 uM using Rh-EVNLDAEFK-Quencher as substrate incubated under dark condition for 90 mins by FRET assay relative to control
T1 sequence (P56817 whole entry, the tested form may be a part): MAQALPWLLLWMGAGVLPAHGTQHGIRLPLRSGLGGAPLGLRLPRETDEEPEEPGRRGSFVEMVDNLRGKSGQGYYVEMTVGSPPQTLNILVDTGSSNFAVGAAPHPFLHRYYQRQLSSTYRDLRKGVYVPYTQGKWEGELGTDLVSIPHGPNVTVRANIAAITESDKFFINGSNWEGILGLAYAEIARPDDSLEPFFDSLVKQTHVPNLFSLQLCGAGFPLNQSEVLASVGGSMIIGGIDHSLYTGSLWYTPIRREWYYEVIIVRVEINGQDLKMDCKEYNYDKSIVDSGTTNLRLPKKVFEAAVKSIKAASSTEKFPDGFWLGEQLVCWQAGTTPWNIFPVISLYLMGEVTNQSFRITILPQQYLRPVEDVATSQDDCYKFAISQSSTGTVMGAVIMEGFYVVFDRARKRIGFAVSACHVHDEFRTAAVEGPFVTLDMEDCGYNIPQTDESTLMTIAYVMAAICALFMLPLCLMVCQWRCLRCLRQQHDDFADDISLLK

Beta-secretase 1 [3] = target: T1, Beta-secretase 1; assay: Inhibition of recombinant human BACE1 (1 to 460 residues) expressed in baculovirus infected insect cells at 10 uM using Rh-EVNLDAEFK-Quencher as substrate incubated under dark condition for 90 mins by FRET assay relative to control
PC-12 [4] = assay: Neuroprotection against amyloid beta (25 to 35)-induced cell death in rat PC12 cells at 25 uM preincubated for 3 hrs followed by amyloid beta addition measured after 24 hrs by MTT assay relative to control; type: functional
PC-12 [5] = assay: Neuroprotection against amyloid beta (25 to 35)-induced cell death in rat PC12 cells at 10 uM preincubated for 3 hrs followed by amyloid beta addition measured after 24 hrs by MTT assay relative to control; type: functional
PC-12 [6] = assay: Cytotoxicity against rat PC12 cells up to 100 uM after 24 hrs by MTT assay; type: cell-based; details: pc-12, 24 h
Beta-secretase 1 [7] = target: T1, Beta-secretase 1; assay: Inhibition of recombinant human BACE1 (1 to 460 residues) expressed in baculovirus infected insect cells using Rh-EVNLDAEFK-Quencher as substrate incubated under dark condition for 90 mins by FRET assay
PC-12 [8] = assay: Neuroprotection against amyloid beta (25 to 35)-induced cell death in rat PC12 cells preincubated for 3 hrs followed by amyloid beta addition measured after 24 hrs by MTT assay; type: functional, cell-based
[9] = Metal chelating activity assessed as compound-Fe2+ complex formation at 20 uM after 30 mins by UV-Visible spectroscopic method
[10] = Metal chelating activity assessed as mole fraction of compound required to show 3:2 stoichiometry for Fe2+-compound complex at 20 uM after 30 min by UV-Visible spectroscopic method
PC-12 [11] = assay: Neuroprotection against amyloid beta (25 to 35)-induced cell death in rat PC12 cells at 15 uM preincubated for 3 hrs followed by amyloid beta addition measured after 24 hrs by MTT assay relative to control; type: functional

Compound | Activity [1] [%] | inhibition (Beta-secretase 1 [2]) [%] | inhibition (Beta-secretase 1 [3]) [%] | Activity (PC-12 [4]) [%] | Activity (PC-12 [5]) [%] | Activity (PC-12 [6]) | IC50 (Beta-secretase 1 [7]) [µM] | IC50 (PC-12 [8]) [µM] | Activity [9] | Activity [10] [molar ratio] | Activity (PC-12 [11]) [%]
O=C(O)CN(CCN(CC(=O)O)CC(=O)O)CC(=O)O | 96.4 | – | – | – | – | – | – | – | – | – | –
COc1ccc(Cn2cc(CNc3ccc(Br)cc3NC(=O)c3cc4ccccc4oc3=N)nn2)cc1 | – | 34.5 | 10 | 22 | 28.4 | Non-Toxic | – | – | – | – | –
N=c1oc2ccccc2cc1C(=O)Nc1cc(Br)ccc1NCc1cn(CCCN2C(=O)c3ccccc3C2=O)nn1 | 10.2 | 84.2 | 83.5 | 100 | 78.8 | Non-Toxic | 2.2 | 7.9 | – | – | –
N=c1oc2ccccc2cc1C(=O)Nc1cc(Br)ccc1NCc1cn(Cc2cccc(Cl)c2Cl)nn1 | – | 62 | 47.8 | 57.2 | 23.6 | Non-Toxic | 15.6 | 18.9 | – | – | –
N=c1oc2ccccc2cc1C(=O)Nc1cc(Br)ccc1NCc1cn(Cc2ccc(Br)cc2)nn1 | 45.2 | 100 | 72.3 | 37.5 | 16.4 | Non-Toxic | 6.4 | 37.8 | Active | 1.5 | –
N=c1oc2ccccc2cc1C(=O)Nc1cc(Br)ccc1NCc1cn(CCCCN2C(=O)c3ccccc3C2=O)nn1 | 12.8 | 77.6 | 55.7 | – | 67.8 | Non-Toxic | 6.8 | 6.8 | – | – | –
N=c1oc2ccccc2cc1C(=O)Nc1cc(Br)ccc1NCc1cn(Cc2ccc(F)cc2)nn1 | – | 45.9 | 21.3 | 22.2 | 13.1 | Non-Toxic | – | – | – | – | –
O=C(O)/C=C/c1ccc(O)c(O)c1 [CAFFEIC ACID] | – | – | – | – | – | – | – | 75.8 | – | – | –
N=c1oc2ccccc2cc1C(=O)Nc1cc(Br)ccc1NCc1cn(Cc2ccc(Cl)c(Cl)c2)nn1 | – | 60.8 | 52 | 49.8 | 21.8 | Non-Toxic | 7.5 | 90.5 | – | – | –
Cc1ccc(Cn2cc(CNc3ccc(Br)cc3NC(=O)c3cc4ccccc4oc3=N)nn2)cc1 | – | 52.4 | 38.3 | 19.2 | – | Non-Toxic | – | – | – | – | 83.8
N=c1oc2ccccc2cc1C(=O)Nc1cc(Br)ccc1NCc1cn(Cc2ccccc2)nn1 | – | 25.2 | 12.1 | – | – | Non-Toxic | – | – | – | – | –
